US20100261796A1, “Use of Novel Compounds for IBD Treatment” (Ferring B.V., priority 2005, published 2010)

Tests used:
TNBS-induced colitis = experiment: TNBS colitis induction model; type: in vivo, C57Bl/6 mice
Description: Animals were housed ten per cage and had free access to standard mouse chow and tap water. For colitis induction, C57Bl/6 mice were anesthetized for 90-120 minutes and received an intra-rectal administration of TNBS (40 μL, 150 mg/kg; provided by Sigma-Aldrich, FR) dissolved in a 1:1 mixture of 0.9% NaCl with 100% ethanol. Control mice received a 1:1 mixture of 0.9% NaCl with 100% ethanol or a saline solution using the same technique. Animals were sacrificed 5 days after TNBS administration. The anti-inflammatory effects of compound 17 were tested by administering the compound once daily by subcutaneous injection, starting one day before colitis induction. Macroscopic, histology and biologic assessments of colitis were performed blindly by two investigators.
The colon of each mouse was examined under a dissecting microscope (magnification, ×5) to evaluate the macroscopic lesions according to the established so-called Wallace criteria. The Wallace score rates macroscopic lesions on a scale from 0 to 10 based on features reflecting inflammation, such as hyperemia, thickening of the bowel, and extent of ulceration (Wallace, J. L. et al. Gastroenterology 96(1):29-36 (1989)). A colon specimen located 2 cm above the anal canal was cut into three parts, one of which was fixed in 4% paraformaldehyde and embedded in paraffin. Sections stained with May-Grunwald-Giemsa were examined blindly by two investigators and scored according to the so-called Ameho criteria (Ameho, C. K. et al. Gut 41(4):487-493 (1997)). This grading on a scale from 0 to 6 takes into account the degree of inflammation infiltrate, the presence of erosion, ulceration, or necrosis, and the depth and surface extension of lesions.
Mice receiving TNBS injections had severe lesions five days after colitis induction, showing necrosis of the colon and leading to mortality in 70% of the mice. TNBS-induced colitis was characterized by hyperemia and extensive area of ulceration. These lesions were characterized by neutrophilic infiltration extending to the mucosa deep into the muscular layer. […]

DSS-induced colitis = experiment: Dextran sulfate sodium (DSS) colitis induction model; type: in vivo, mice; settings: preventive treatment, 10^−1 mg/kg/d, 5% DSS for seven days
Description: Mice were fed 5% DSS (molecular weight 30-40 kDa) for seven days. DSS was dissolved in sterile distilled water and given ad libitum throughout the experiment. Stool consistency, occult blood or the presence of macroscopic rectal bleeding gross were determined daily and blindly by two experiment investigators, as described previously (Hartmann et al., J Pharmacol Exp Ther., 292(1):22-30 (2000)). […] Bleeding was scored 0 point for no blood in hemoccult, 2 points for positive hemoccult, and 4 points for gross bleeding from the rectum. These scores were added, resulting in a total clinical score ranging from 0 (healthy) to 8 (maximal activity of colitis). […] For cell infiltration of inflammatory cells, rare inflammatory cells in the lamina propria were counted as 0; increased numbers of inflammatory cells, including neutrophils in the lamina propria as 1; confluence of inflammatory cells, extending into the submucosa as 2; and a score of 3 was given for transmural extension of the inflammatory cell infiltrate. For epithelial damage, absence of mucosal damage was counted as 0, discrete focal lymphoepithelial lesions were counted as 1, mucosal erosion/ulceration was counted as 2, and a score of 3 was given for extensive mucosal damage and extension through deeper structures of the bowel wall. […]

NC(=O)CCCN(CCCC1CCCCC1)C(=O)Nc1ccccc1 [Compound 17, 4-[1-(3-cyclohexylpropyl)-3-phenylureido]butyramide]
Ameho score (histology, scale 0 to 6) (TNBS-induced colitis; 10^−1 mg/kg/d subcutaneously once daily, starting one day before colitis induction, five days after TNBS administration, untreated TNBS mice 5.3±0.15): 3.9±0.62
Wallace score (macroscopic lesions, scale 0 to 10) (TNBS-induced colitis; 10^−1 mg/kg/d subcutaneously once daily, starting one day before colitis induction, five days after TNBS administration, untreated TNBS mice 7.0±0.37): 3.8±0.89
mortality rates (TNBS-induced colitis; 10^−1 mg/kg/d subcutaneously, TNBS-induced colitis, mortality in 70% of untreated TNBS mice): not associated with a significant improvement of mortality rates
scores for clinical parameters (stool consistency + bleeding, 0 to 8) (DSS-induced colitis; untreated 3.7±0.14, P=0.003): 2.8±0.13
histologic score (0 to 6) (DSS-induced colitis; untreated 5.8±0.13, P=0.001): 3.9±0.39
